From US20160318856A1, “Substituted Urea eIF2alpha Kinase Activators” (THE BRIGHAM AND WOMEN'S HOSPITAL, INC., priority 2013, published 2016)
Where two headings read alike, the source gives them in different places.

What was measured:
Assay type in all cases: cell-based
NIH/3T3 fibroblast cells = assay: cell proliferation (SRB) assay, NIH/3T3; conditions: for IC50: Mus musculus, NIH3T3
Description: (§1) Cells were seeded in 96-well plates and maintained for 5 days in the presence of 0.5 to 20 μM of individual compound, and cell proliferation was measured by the sulforhodamine B (SRB) assay as described previously (see, for example, Palakurthi, S. S. et al. Cancer Research 2000, 60(11), 2919-2925). Briefly, at the end of a 5-day treatment, cells were fixed in 10% cold trichloroacetic acid. Cell number was estimated by measuring the remaining bound dye of sulforhodamine B after washing. The percentage of growth was calculated by using the equation: 100×[(T−T0)/(C−T0)], where T and C represent the absorbance in treated and control cultures at Day 5, and T0 at time zero, respectively. If T is less than T0, cell death has occurred and can be calculated from 100×[(T−T0)/T0].
The experiments were conducted in triplicate, and each experiment was independently performed three times. IC50=effective dose of drug that inhibit cell proliferation by 50%. Data are shown as Mean±S.E.M.
Compounds I-6p, I-17, I-18 and I-20 were tested in NIH/3T3 fibroblast and CRL-2813 melanoma cancer cells in cell proliferation assay. The experiment was conducted in triplicate and each experiment was independently performed three times. Data are shown as Mean IC50±S.E.M.

T47D = assay: cell proliferation assay, T47D; conditions: Homo sapiens, Breast
Description: as §1

ACHN = assay: cell proliferation assay, ACHN; conditions: Homo sapiens, Kidney
Description: as §1

HEP B3 = assay: cell proliferation assay, HEP B3; conditions: HEP B3, Liver
Description: as §1

A-549 = assay: cell proliferation assay, A-549; conditions: Homo sapiens, A549; A-549, Lung
Description: as §1

PC-3 = assay: cell proliferation assay, PC-3; conditions: Homo sapiens; PC-3, Prostate
Description: as §1

ASPC-1 = assay: cell proliferation assay, ASPC-1; conditions: Homo sapiens, ASPC1; ASPC-1, Pancreas; read-out: IC50
Description: as §1
The compounds shown in Table 7 were evaluated using for activation of HRI using the dual luciferase surrogate eIF2α phosphorylation assay (see, for example, Chen, T. et al. Nature Chem Biol 2011, 7, 610-616) and for inhibition of cell proliferation using the SRB assay (see, for example, Palakurthi, S. S. et al. Cancer Res 2000, 60, 2919-2925) as described above.

HT-29 = assay: cell proliferation assay, HT-29; conditions: Homo sapiens; HT-29, Colon
Description: as §1

BAF-3 = assay: cell proliferation assay, BAF-3; conditions: Mus musculus, BaF3; BAF-3, Leukemia
Description: as §1

CaSki = assay: cell proliferation assay, CaSki; conditions: Homo sapiens, Ca-Ski, Cervix
Description: as §1

[1] = tested on: MCF-7 human breast cancer cells; assay: cell proliferation assay, MCF-7; conditions: MCF7, MCF-7, Breast
Description: as §1

## O=C(Nc1cccc(C(F)(F)F)c1)NC1CCC(Oc2ccc(OC(F)(F)F)cc2)CC1 (stereo not shown) [Compound I-17, 1-(4-(4-(trifluoromethoxy)phenoxy)cyclohexyl)-3-(3-(trifluoromethyl)phenyl)urea]
NIH/3T3 fibroblast cells; CRL-2813 human melanoma vs NIH-3T3 fibroblast
  fold higher potency on cancer cells compared to non-transformed cells: five-fold higher potency
NIH/3T3 fibroblast cells; NIH/3T3, Table 5, Mean±S.E.M., read-out: IC50
  IC50: 3400 ± 200 nM
NIH/3T3 fibroblast cells; NIH/3T3, Table 8, Mean IC50±S.E.M., read-out: IC50 of compounds
  IC50: 3400 ± 200 nM
T47D
  IC50: 1200 nM
ACHN
  IC50: 1400 nM
HEP B3
  IC50: 1800 nM
A-549
  IC50: 900 nM
PC-3
  IC50: 2900 nM
ASPC-1
  IC50: 2400 nM
HT-29
  IC50: 2700 nM
BAF-3
  IC50: 800 nM
CaSki
  IC50: 2800 nM
[1]
  IC50: 1300 nM
